The text below walks through data of PubChem BioAssay (NCI).

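Grown in 96-well plates, cells were treated for 48 hours with each compound at five concentrations. Insufficient inhibition: endpoint recorded as highest concentration tested. TGI denotes the concentration required for complete inhibition of growth.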 Where a SMILES comes first, the peptide text is derived from it. [ ]: non-standard residue; d: D form. The star is where a group is joined. Phe(4-NO2) = N[CH](Cc1ccc([N+](=O)[O-])cc1)C(=O)O; Hiv = CC(C)[C@H](O)C(=O)O; Boc = CC(C)(C)OC(=O)*

Assay in all cases: NCI anticancer screen, dose series, 48 h
Assay [1] deals with COLO 205 colon.
In assay [2] the test system is DU-145 prostate.
The subject of assay [3] is HL-60(TB) leukemia.
Assay [4] has as its system HT29 colon.
Assay [5] relates to K-562 leukemia.
Assay [6] has as its system KM12 colon.
Assay [7] concerns LOX IMVI melanoma.
Assay [8] concerns MALME-3M melanoma.
Assay [9] deals with MCF7 breast.
The test system of assay [10] is MDA-MB-435.
For assay [11], the system named is MDA-N.
In assay [12] the test system is NCI-H23 lung.
Assay [13] relates to NCI-H522 lung.
The test system of assay [14] is OVCAR-4 ovarian.
The subject of assay [15] is OVCAR-8 ovarian.
Assay [16] has as its system SK-OV-3 ovarian.
Assay [17] has as its system T-47D breast.
Assay [18] relates to SK-MEL-2 melanoma.
The subject of assay [19] is SNB-75 CNS.
Assay [20] has as its system BT-549 breast.

For the compound `O=c1oc2c/c(=C\c3ccccn3)c(=O)c3cccc1c3-2`, the TGI in assay [1], in assay [2], in [3], in assay [4], in assay [5] and in assay [6] was over 100 µM each time. The TGI in [7], in assay [8], in assay [9], in [10], in [11] and in assay [12] was over 100 µM throughout. Moreover, the TGI is over 100 µM in assay [13]; over 100 µM in assay [14]; 54.4 µM in assay [15]; over 100 µM in [16]; over 100 µM in [17].
`COC(=O)CCC(NC(=O)OC(C)(C)C)C(=O)NC(Cc1ccc([N+](=O)[O-])cc1)C(=O)NC(CCC(=O)OC)C(=O)OC` (centres undefined) (Boc-Glu(OMe)-[Phe(4-NO2)]-Glu(OMe)-OMe; configuration not given here): the TGI in assay [1] was over 100 µM; in [2], over 100 µM; in assay [4] it was over 100 µM; in assay [5] it was over 100 µM; in [6] it was over 100 µM; in assay [7] it was 80.2 µM. For the same compound, the TGI in assay [8], in assay [9], in assay [10], in [11], in assay [12] and in [13] was over 100 µM each time. In addition, the TGI is over 100 µM in assay [14]; over 100 µM in assay [15]; over 100 µM in [18]; over 100 µM in assay [16]; 80.9 µM in [19]; over 100 µM in assay [17].
As to `O=C1N(CN2CCOCC2)CN(CN2CCOCC2)C(=O)N1Cc1ccc(CN2C(=O)N(CN3CCOCC3)CN(CN3CCOCC3)C2=O)cc1`, the TGI in assay [1] is over 100 µM; in assay [2], over 100 µM; in assay [3] it was over 100 µM; in [4], over 100 µM; in [6], over 100 µM; in [7] it was 76.4 µM. Besides, the TGI in [9], in [10], in [11], in assay [12], in [13] and in assay [14] was over 100 µM each time. The TGI was over 100 µM in [15]; 39.8 µM in [18]; over 100 µM in assay [16]; over 100 µM in assay [19]; over 100 µM in [17].
For `Cc1cc2cc3ccccc3cc2c(=O)[nH]1`, the TGI in assay [20], in [2], in assay [3], in [4], in assay [5] and in assay [6] was over 10 µM each time. For the same compound, the TGI in [7], in [9], in [10], in [11], in assay [12] and in assay [13] was over 10 µM throughout. For the same compound, the TGI in assay [14], in [15], in assay [16] and in [19] was over 10 µM throughout.
On to `CC(C)[C@@H]1OC(=O)[C@@H](C)NC(=O)[C@@H]2CCCN2C1=O` (cyclo([Hiv]-Pro-[dA])), for which the TGI in assay [1], in [2], in assay [3], in assay [4], in assay [6] and in assay [7] was over 100 µM in each case. Also, the TGI in assay [8], in assay [9], in [10], in assay [11], in assay [12] and in assay [14] was over 100 µM throughout. Also, the TGI in assay [15], in [18], in [16] and in [17] was over 100 µM throughout.
Regarding `Cc1c(N=Nc2ccc(Cl)cc2)c(C)n(C2OC(CO)C(O)C(O)C2O)c(=S)c1C#N` (centres undefined), the TGI is 40.6 µM in assay [1]; over 100 µM in [2]; 58.3 µM in assay [3]; over 100 µM in assay [4]; 55.4 µM in [5]; 54.5 µM in assay [6]. Besides, the TGI in assay [7] was 33.3 µM; in assay [8] it was 46.3 µM; in [9], over 100 µM; in assay [10], 42.7 µM; in [11] it was 50.4 µM; in [12], 74.3 µM. Further, the TGI in [13] is 49.9 µM; in assay [14], 50.1 µM; in assay [15], 63.9 µM; in assay [18], 33.8 µM; in assay [16], over 100 µM; in [19] it was 68 µM. For the same compound, in assay [17], the TGI is over 100 µM.
Turning to `Cc1ccc(S(=O)(=O)N/N=C2\CC(C)OC3=C2CCCCCC3)cc1` (centres undefined), the TGI in assay [1] was 37.1 µM; in [2], 37.6 µM; in assay [3], 54.6 µM; in assay [4] it was 34.9 µM; in assay [5] it was over 100 µM; in assay [6] it was 37.4 µM. In addition, the TGI in assay [7] is 33.7 µM; in assay [8], 39.5 µM; in [9] it was 38.2 µM; in assay [10], 34.6 µM; in assay [11], over 100 µM; in assay [12] it was 41.6 µM. Also, the TGI is 35.6 µM in assay [14]; 45.2 µM in assay [15]; 62.8 µM in assay [16]; 52.4 µM in assay [19]; over 100 µM in [17].
As for `CCOC(=O)C(NC(=O)c1ccccc1)(Nc1ccc(S(=O)(=O)Nc2cc(C)nc(C)n2)cc1)C(F)(F)F` (centres undefined), the TGI in [1], in assay [2], in assay [3], in assay [4], in assay [5] and in assay [6] was over 100 µM in each case. Besides, the TGI in [7], in assay [8], in assay [9], in assay [10], in [11] and in assay [12] was over 100 µM throughout. Besides, the TGI in assay [13], in assay [14], in assay [15], in [18], in assay [19] and in [17] was over 100 µM throughout.
For the compound `Cc1cc(-c2cscn2)c(O)c([N+](=O)[O-])c1`, the TGI in assay [20], in assay [1], in assay [3], in [4], in assay [5] and in [7] was over 100 µM in each case. For the same compound, the TGI in assay [8], in assay [9], in [10], in [11], in [12] and in [14] was over 100 µM throughout. The TGI in [15] was over 100 µM; in assay [18], over 100 µM; in assay [16], 96 µM.
Regarding `O=C1OCCC[C@H]2O[C@@H](COCc3ccccc3)C[C@@H]12`, the TGI in [1], in assay [2], in assay [3], in [4], in assay [5] and in assay [6] was over 100 µM in each case. The TGI in assay [9], in assay [10], in assay [11], in assay [12], in assay [14] and in assay [15] was over 100 µM in each case. In addition, the TGI in [18], in [16], in assay [19] and in assay [17] was over 100 µM in each case.
In the case of `CC(NC(=O)OC(C)(C)C)C(=O)NC(Cc1ccccc1)C(=O)NCC(=O)Oc1c(Cl)c(Cl)c(Cl)c(Cl)c1Cl` (centres undefined), the TGI in assay [20] is 69.3 µM; in [1], 70.9 µM; in [3], 53.3 µM; in assay [4] it was 73.2 µM; in assay [5] it was over 100 µM; in assay [6], over 100 µM. Also, the TGI in [8] worked out at 49.2 µM; in assay [9], 89.6 µM; in [11] it was 90.6 µM; in [12], 40.7 µM; in assay [15], 43.9 µM; in assay [18] it was 73.1 µM. This compound also displayed a TGI in [19] of over 100 µM.
Take `CCOC(=O)CC(=O)CSc1c(-c2ccccc2)c(=O)n(-c2ccccc2)c(=S)n1-c1ccccc1`: the TGI in assay [1], in assay [2], in assay [3], in assay [4], in [5] and in [6] was over 100 µM throughout. Further, the TGI in assay [7], in assay [8], in assay [9], in assay [10], in assay [11] and in assay [12] was over 100 µM each time. Moreover, the TGI in [13], in assay [14], in assay [15], in [16], in [19] and in assay [17] was over 100 µM throughout.
As to `c1ccc2c3nnc(c2c1)SCCCSc1nnc(c2ccccc12)SCCCS3`, the TGI in [1], in assay [2], in assay [3], in [4], in assay [5] and in [6] was over 100 µM throughout. Besides, the TGI in assay [7] was over 100 µM; in [8] it was 72.1 µM; in [9] it was over 100 µM; in [10], over 100 µM; in assay [11], over 100 µM; in assay [12] it was over 100 µM. Besides, the TGI in [13] is over 100 µM; in assay [14], 54.3 µM; in [15], over 100 µM; in [18] it was over 100 µM; in [16], over 100 µM; in assay [19], 50.3 µM. This compound showed a TGI in assay [17] of over 100 µM.
Take `Clc1ccc(-c2nc3ccc4ccccc4c3c3c2CCCC3)cc1`: the TGI in [20], in assay [1], in assay [2], in assay [4], in [5] and in assay [6] was over 100 µM throughout. Moreover, the TGI in assay [8], in assay [9], in assay [10], in assay [11], in [12] and in assay [13] was over 100 µM throughout. Further, the TGI in assay [15], in [18], in assay [16] and in assay [19] was over 100 µM throughout.
Consider `COC(=O)/C=C(\C)CC/C=C(\C)CCC(O)C(C)(C)O` (centres undefined), for which the TGI is 84 µM in [20]; 38.3 µM in [1]; 42.2 µM in assay [3]; over 100 µM in assay [4]; 76.7 µM in [5]; 28.4 µM in assay [6]. The TGI in assay [7] is 31.5 µM; in assay [8] it was 41.5 µM; in [9], over 100 µM; in assay [11] it was 57.8 µM; in [12] it was 98.3 µM; in [14], over 100 µM. The TGI in assay [15] is 67 µM; in [18], 36.3 µM; in [16], over 100 µM; in [19], over 100 µM.
`NNc1ncc2c(n1)-c1ccccc1OC2`: the TGI in [1] is over 100 µM; in assay [2], over 100 µM; in assay [3], 45.8 µM; in assay [4], over 100 µM; in assay [5] it was over 100 µM; in assay [6], over 100 µM. Further, the TGI in assay [7], in [8], in [9], in [10], in assay [11] and in assay [12] was over 100 µM in each case. Further, the TGI in assay [13], in [14], in assay [15], in [18], in [16] and in assay [19] was over 100 µM in each case.
